The text below walks through data of patent US11311542B2, “Inhibitors of cyclin dependent kinase 7 (CDK7)” (Syros Pharmaceuticals, Inc., priority 2018, dated 2022).

As a reminder, the IC50 is the concentration that gives 50% inhibition.

Where two headings read alike, the source gives them in different places. A value given as a limit tells only on which side of the number the result lay.

For one experiment, the system named is HCC70 cells. As to the kind of experiment: Inhibition of cell proliferation (CyQUANT Direct), HCC70. Format: cell-based, human. The conditions noted are these: HCC70, 72-hour. On the procedure: (§1) HCC70 and MB453 cells are cell lines derived from human triple negative breast cancer COV318 and COV504 cells are cell lines derived from human ovarian cancer. Representative compounds of the invention were tested at different concentrations (from 4 μM to 126.4 pM; 0.5 log serial dilutions) for their ability to inhibit the proliferation of each of these cell lines. Known CDK inhibitors dinaciclib or N-((1S,3R)-3-((5-chloro-4-(1H-indol-3-yl) pyrimidin-2-yl)amino)cyclohexyl)-5-((E)-4-(dimethylamino)but-2-enamido)picolinamide and triptolide were used as positive controls. Cells were seeded at approximately 2,000 cells/well and grown in ATCC-formulated RPMI-1640 Medium (ATCC 30-2001)+10% FBS. The cells were cultured at 37° C. in a humidified chamber in the presence of 5% CO2. Proliferation assays were conducted over a 72-hour time period. CyQUANT® Direct Cell Proliferation Assay (Life Technologies, Chicago, Ill. USA) was used to assess the anti-proliferative effects of the compounds following manufacturer's directions and utilizing the reagents supplied with the CyQUANT® Direct Cell kit.

For the next experiment, the target named is CDK2/Cyclin E1 complex (Homo sapiens, UniProt P24941). As to the kind of experiment: CDK2 kinase inhibition assay (Caliper/LabChip EZ Reader).
The subject of another experiment is COV318 cells. As to the kind of experiment: Inhibition of cell proliferation (CyQUANT Direct), COV318. It counts as cell-based, human. The conditions noted are these: COV318, 72-hour. On the procedure: as §1
A further experiment deals with CDK9/Cyclin T1 complex (Homo sapiens, UniProt P50750). The experiment is described as follows: CDK9 kinase inhibition assay (Caliper/LabChip EZ Reader).
CDK9/Cyclin T1 complex, sequence (P50750 whole entry): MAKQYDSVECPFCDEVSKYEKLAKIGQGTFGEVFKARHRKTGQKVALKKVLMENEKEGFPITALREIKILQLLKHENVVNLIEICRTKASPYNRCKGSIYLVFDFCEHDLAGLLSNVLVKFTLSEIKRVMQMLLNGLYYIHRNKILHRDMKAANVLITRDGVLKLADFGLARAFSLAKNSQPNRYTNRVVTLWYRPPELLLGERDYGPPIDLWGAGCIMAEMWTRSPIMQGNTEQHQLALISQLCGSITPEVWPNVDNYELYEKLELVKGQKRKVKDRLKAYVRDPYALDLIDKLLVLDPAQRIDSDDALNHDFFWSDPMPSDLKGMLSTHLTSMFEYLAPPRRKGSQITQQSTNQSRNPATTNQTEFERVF
CDK9/Cyclin T1 complex, sequence (O60563 whole entry partner): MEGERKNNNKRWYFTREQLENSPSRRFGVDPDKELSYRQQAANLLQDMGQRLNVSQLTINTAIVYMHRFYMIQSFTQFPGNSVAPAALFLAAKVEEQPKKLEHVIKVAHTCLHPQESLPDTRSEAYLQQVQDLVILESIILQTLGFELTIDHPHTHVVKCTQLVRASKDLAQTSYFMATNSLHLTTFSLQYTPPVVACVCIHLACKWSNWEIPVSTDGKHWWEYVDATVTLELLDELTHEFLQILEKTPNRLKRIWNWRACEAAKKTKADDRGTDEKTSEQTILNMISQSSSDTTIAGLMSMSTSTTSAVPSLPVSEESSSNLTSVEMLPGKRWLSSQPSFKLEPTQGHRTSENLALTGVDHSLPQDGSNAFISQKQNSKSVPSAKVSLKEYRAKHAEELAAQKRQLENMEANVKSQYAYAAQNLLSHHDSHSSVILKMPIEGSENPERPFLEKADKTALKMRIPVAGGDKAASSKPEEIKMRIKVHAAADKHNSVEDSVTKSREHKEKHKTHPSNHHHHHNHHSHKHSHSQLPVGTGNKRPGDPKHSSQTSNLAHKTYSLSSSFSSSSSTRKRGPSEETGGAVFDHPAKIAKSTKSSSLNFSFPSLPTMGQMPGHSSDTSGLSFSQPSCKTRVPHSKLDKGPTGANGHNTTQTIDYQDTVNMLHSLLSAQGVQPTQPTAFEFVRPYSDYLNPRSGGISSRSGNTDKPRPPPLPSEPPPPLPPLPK
The test system of a further experiment is COV504 cells. The experiment is described as follows: Inhibition of cell proliferation (CyQUANT Direct), COV504. Conditions: COV504, 72-hour. Format: cell-based, human. On the procedure: as §1
The target of experiment [1] is CDK7/Cyclin H/MAT1 complex (Homo sapiens, UniProt P50613). As to the kind of experiment: CDK7 kinase inhibition assay (Caliper/LabChip EZ Reader).
CDK7/Cyclin H/MAT1 complex, sequence (P50613 whole entry, the tested form may be a part): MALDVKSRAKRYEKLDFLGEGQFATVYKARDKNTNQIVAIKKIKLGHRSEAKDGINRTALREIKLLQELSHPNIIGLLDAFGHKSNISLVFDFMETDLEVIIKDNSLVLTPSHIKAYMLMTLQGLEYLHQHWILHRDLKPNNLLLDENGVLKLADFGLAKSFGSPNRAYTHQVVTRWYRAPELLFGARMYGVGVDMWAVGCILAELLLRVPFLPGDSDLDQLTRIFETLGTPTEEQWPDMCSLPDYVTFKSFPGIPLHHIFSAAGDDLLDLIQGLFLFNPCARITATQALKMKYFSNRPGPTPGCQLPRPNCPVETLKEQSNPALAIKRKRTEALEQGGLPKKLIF
CDK7/Cyclin H/MAT1 complex, sequence (P51946 whole entry partner, the tested form may be a part): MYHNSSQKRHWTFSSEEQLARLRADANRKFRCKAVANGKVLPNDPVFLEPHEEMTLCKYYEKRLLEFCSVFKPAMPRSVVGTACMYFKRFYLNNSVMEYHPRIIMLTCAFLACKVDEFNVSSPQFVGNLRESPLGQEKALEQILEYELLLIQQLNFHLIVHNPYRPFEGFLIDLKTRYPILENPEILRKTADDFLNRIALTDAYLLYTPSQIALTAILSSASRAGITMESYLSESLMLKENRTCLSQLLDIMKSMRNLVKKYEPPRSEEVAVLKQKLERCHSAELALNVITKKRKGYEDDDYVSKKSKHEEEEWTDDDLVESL
CDK7/Cyclin H/MAT1 complex, sequence (P51948 whole entry partner, the tested form may be a part): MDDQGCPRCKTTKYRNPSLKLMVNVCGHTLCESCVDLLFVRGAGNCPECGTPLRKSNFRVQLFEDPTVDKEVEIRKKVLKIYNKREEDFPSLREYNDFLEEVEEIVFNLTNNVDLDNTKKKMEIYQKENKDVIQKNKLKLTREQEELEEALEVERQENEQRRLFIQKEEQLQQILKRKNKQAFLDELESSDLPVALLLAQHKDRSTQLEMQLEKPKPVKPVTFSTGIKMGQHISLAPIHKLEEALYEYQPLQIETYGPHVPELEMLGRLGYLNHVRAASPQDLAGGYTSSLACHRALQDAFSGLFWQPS
Method: (§2) Compounds described herein were assayed for inhibition of CDK7, CDK9, CDK12, and CDK2 activity at Biortus Biosciences (Jiangyin, Jiangsu Province, P.R. of China) using kinase assays for each CDK developed with a Caliper/LabChip EZ Reader (Perkin Elmer, Waltham, Mass.).
(§3) Furthermore, the CDK9 inhibition assay used CDK9/Cyclin T1 complex (8 nM) and “5-FAM-CDK9tide” peptide substrate (2 μM, synthesized fluorophore-labeled peptide with the following sequence: 5-FAM-GSRTPMY-NH2 (SEQ ID NO:2) where 5-FAM is defined above and NH2 signifies a C-terminal amide) with 10 mM MgCl2 in the buffer composition listed above. The CDK12 inhibition assay used CDK12 (aa686-1082)/Cyclin K complex (50 nM) and “5-FAM-CDK9tide” (2 μM) as defined above, with 2 mM MgCl2 in the buffer composition above. Additionally, the CDK2 inhibition assay used CDK2/Cyclin E1 complex (0.5 nM) and “5-FAM-CDK7tide” (2 μM; defined above) with 2 mM MgCl2 in the buffer composition above.
(§4) The incubation period at 27° C. for each CDK inhibition assay was chosen such that the fraction of phosphorylated peptide product produced in each assay, relative to the total peptide concentration, was approximately 20% (±5%) for the uninhibited kinase (35 min. for CDK7, 35 min. for CDK2, 3 hr. for CDK12, 15 min. for CDK9).
Experiment [2] addresses CDK12 (aa686-1082)/Cyclin K complex (Homo sapiens, UniProt Q9NYV4). The experiment is described as follows: CDK12 kinase inhibition assay (Caliper/LabChip EZ Reader).
Method: as §2, §3, §4
The test system of the next experiment is MB453 cells. As to the kind of experiment: Inhibition of cell proliferation (CyQUANT Direct), MB453. It counts as cell-based, human. Conditions: MB453, 72-hour. As to the method:
as §1

The mark [3] stands for this setting: read-out: CDK2 IC50, CDK2/Cyclin E1 0.5 nM, ATP 2 mM, 35 min at 27° C.
The mark [4] stands for this setting: read-out: CDK9 IC50, CDK9/Cyclin T1 8 nM, ATP 2 mM, 15 min at 27° C.
The mark [5] stands for this setting: read-out: CDK7 IC50, CDK7/Cyclin H/MAT1 6 nM, ATP 2 mM, 35 min at 27° C.
The mark [6] stands for this setting: read-out: CDK12 IC50, CDK12 (aa686-1082)/Cyclin K 50 nM, ATP 2 mM, 3 hr at 27° C.

CDK12 (aa686-1082)/Cyclin K complex, sequence (Q9NYV4 686-1082): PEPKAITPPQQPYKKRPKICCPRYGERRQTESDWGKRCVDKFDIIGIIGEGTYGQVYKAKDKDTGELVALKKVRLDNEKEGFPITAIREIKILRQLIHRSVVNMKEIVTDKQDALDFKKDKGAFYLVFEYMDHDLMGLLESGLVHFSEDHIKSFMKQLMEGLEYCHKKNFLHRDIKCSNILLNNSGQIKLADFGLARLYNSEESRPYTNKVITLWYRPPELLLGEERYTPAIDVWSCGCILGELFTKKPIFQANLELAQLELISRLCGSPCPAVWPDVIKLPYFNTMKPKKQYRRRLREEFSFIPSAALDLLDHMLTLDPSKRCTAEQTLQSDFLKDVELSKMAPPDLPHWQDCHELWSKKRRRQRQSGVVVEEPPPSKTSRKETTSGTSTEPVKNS
CDK12 (aa686-1082)/Cyclin K complex, sequence (O75909 whole entry partner, the tested form may be a part): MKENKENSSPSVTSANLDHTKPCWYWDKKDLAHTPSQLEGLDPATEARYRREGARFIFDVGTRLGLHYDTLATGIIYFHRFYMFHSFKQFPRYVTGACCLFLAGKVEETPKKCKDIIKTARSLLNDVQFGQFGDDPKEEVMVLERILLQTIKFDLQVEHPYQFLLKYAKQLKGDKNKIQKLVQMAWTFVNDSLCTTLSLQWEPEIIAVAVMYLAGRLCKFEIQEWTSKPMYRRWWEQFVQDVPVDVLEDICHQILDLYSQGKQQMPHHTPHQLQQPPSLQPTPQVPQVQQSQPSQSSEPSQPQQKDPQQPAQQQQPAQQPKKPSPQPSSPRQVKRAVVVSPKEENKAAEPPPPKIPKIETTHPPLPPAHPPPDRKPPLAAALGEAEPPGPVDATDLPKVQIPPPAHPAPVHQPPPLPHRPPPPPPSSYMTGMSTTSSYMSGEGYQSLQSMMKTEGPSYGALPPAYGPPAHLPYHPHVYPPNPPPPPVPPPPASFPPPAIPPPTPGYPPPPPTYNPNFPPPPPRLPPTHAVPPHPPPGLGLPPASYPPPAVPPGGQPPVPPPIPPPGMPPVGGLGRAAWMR
Method for CDK2/Cyclin E1 complex: as §2, §3, §4

As for “3-methyl-4-(3-(2-(methylthio)-5-(trifluoromethyl)pyrimidin-4-yl)-1-(phenylsulfonyl)-1H-pyrrolo[2,3-b]pyridin-6-yl)isoxazole [Compound 147]”, the IC50 with HCC70 cells is less than 100 nM; at CDK2/Cyclin E1 complex (setting [3]) it was greater than 500 nM; in the experiment on COV318 cells, greater than 1000 nM; on CDK9/Cyclin T1 complex (setting [4]) it was greater than 500 nM; in the experiment on COV504 cells, less than 100 nM; in experiment [1] (setting [5]), less than 30 nM. Further, the IC50 in experiment [2] (setting [6]) was greater than 500 nM; in the experiment on MB453 cells, less than 100 nM.
Regarding `CO[C@@H]1CCNC[C@H]1Nc1ncc(C(F)(F)F)c(-c2c[nH]c3nc(-c4c(C)noc4C)ccc23)n1` (single isomer, unassigned) [Compound 117], the IC50 with HCC70 cells (Homo sapiens) was 100 to 500 nM; at CDK2/Cyclin E1 complex, greater than 500 nM; with COV318 cells (Homo sapiens), 500 to 1000 nM; on CDK9/Cyclin T1 complex it was greater than 500 nM; in the experiment with COV504 cells (Homo sapiens), less than 100 nM; in experiment [1], less than 30 nM. The IC50 is greater than 500 nM in experiment [2] and less than 100 nM in the experiment on MB453 cells (Homo sapiens).
Take `CO[C@@H]1CCNC[C@H]1Nc1ncc(C(F)(F)F)c(-c2c[nH]c3cc(-c4c(C)noc4C)ccc23)n1` (single isomer, unassigned) [Compound 127]: the IC50 in the experiment with HCC70 cells (Homo sapiens) was greater than 1000 nM; against CDK2/Cyclin E1 complex it was greater than 500 nM; with COV318 cells (Homo sapiens), 100 to 500 nM; against CDK9/Cyclin T1 complex, greater than 500 nM; in the experiment with COV504 cells (Homo sapiens), less than 100 nM; in experiment [1], less than 30 nM. Further, the IC50 in experiment [2] is greater than 500 nM; in the experiment on MB453 cells (Homo sapiens), less than 100 nM.
For `Cc1noc(C)c1-c1ccc2c(-c3nc(N[C@@H]4CN(C(=O)OC(C)(C)C)CC[C@@H]4C)ncc3C(F)(F)F)cn(S(=O)(=O)c3ccccc3)c2n1` (single isomer, unassigned) [Compound 143], the IC50 was less than 100 nM in the experiment with HCC70 cells (Homo sapiens); greater than 500 nM at CDK2/Cyclin E1 complex (setting [3]); greater than 1000 nM in the experiment with COV318 cells (Homo sapiens); greater than 500 nM at CDK9/Cyclin T1 complex (setting [4]); less than 100 nM with COV504 cells (Homo sapiens); less than 30 nM in experiment [1] (setting [5]). Besides, the values for the 50% inhibitory concentration (IC50) (in experiment [2] (setting [6]); in the experiment with MB453 cells (Homo sapiens)) were greater than 500 nM and less than 100 nM, respectively.
Turning to `Cc1noc(C)c1-c1ccc2c(-c3nc(N[C@H]4CCCNC4)ncc3C(F)(F)F)n[nH]c2c1` [Compound 100, 4-[6-(3,5-dimethylisoxazol-4-yl)-1H-indazol-3-yl]-N-[(3S)-3-piperidyl]-5-(trifluoromethyl)pyrimidin-2-amine], the IC50 in the experiment with HCC70 cells (Homo sapiens) is less than 100 nM; against CDK2/Cyclin E1 complex, greater than 500 nM; in the experiment on COV318 cells (Homo sapiens), 100 to 500 nM; on CDK9/Cyclin T1 complex, greater than 500 nM; with COV504 cells (Homo sapiens) it was less than 100 nM; in experiment [1], less than 30 nM. Moreover, the IC50 in experiment [2] was greater than 500 nM; in the experiment on MB453 cells (Homo sapiens), less than 100 nM.
For `Cc1noc(C)c1-c1ccc2c(-c3nc(N[C@H]4CCCNC4)ncc3C(F)(F)F)c[nH]c2n1` [Compound 101, 4-[6-(3,5-dimethylisoxazol-4-yl)-1H-pyrrolo-[2,3-b]-pyridin-3-yl]-N-[(3S)-3-piperidyl]-5-(trifluoromethyl)pyrimidin-2-amine], the IC50 was less than 100 nM in the experiment on HCC70 cells (Homo sapiens); greater than 500 nM on CDK2/Cyclin E1 complex; less than 100 nM with COV318 cells (Homo sapiens); greater than 500 nM against CDK9/Cyclin T1 complex; less than 100 nM in the experiment with COV504 cells (Homo sapiens); less than 30 nM in experiment [1]. Also, the results for the half-inhibitory concentration (IC50) (in experiment [2]; in the experiment with MB453 cells (Homo sapiens)) were 100 to 500 nM and less than 100 nM, respectively.
On to `Cc1noc(C)c1-c1ccc2c(-c3nc(N[C@@H]4CNCC(C)(C)C4)ncc3C(F)(F)F)c[nH]c2c1` [Compound 102], for which the IC50 in the experiment with HCC70 cells (Homo sapiens) is less than 100 nM; against CDK2/Cyclin E1 complex it was greater than 500 nM; in the experiment with COV318 cells (Homo sapiens) it was 100 to 500 nM; at CDK9/Cyclin T1 complex, greater than 500 nM; in the experiment with COV504 cells (Homo sapiens), less than 100 nM; in experiment [1], less than 30 nM. The values for the half-inhibitory concentration (IC50) (in experiment [2]; in the experiment on MB453 cells (Homo sapiens)) were greater than 500 nM and less than 100 nM, respectively.
In the case of `FC(F)(F)c1cnc(N[C@H]2CCCNC2)nc1-c1n[nH]c2cc(-c3nccs3)ccc12` [Compound 103], the 50% inhibitory concentration (IC50) was 100 to 500 nM in the experiment with HCC70 cells (Homo sapiens); greater than 500 nM against CDK2/Cyclin E1 complex; 100 to 500 nM in the experiment with COV318 cells (Homo sapiens); greater than 500 nM at CDK9/Cyclin T1 complex; less than 100 nM with COV504 cells (Homo sapiens); less than 30 nM in experiment [1]. For the same molecule, the IC50 in experiment [2] is 100 to 500 nM; with MB453 cells (Homo sapiens), less than 100 nM.
Consider `Cc1noc(C)c1-c1ccc2c(-c3nc(N[C@H]4CCC(C)(C)NC4)ncc3C(F)(F)F)c[nH]c2c1` [Compound 104, (S)-4-(6-(3,5-dimethylisoxazol-4-yl)-1H-indol-3-yl)-N-(6,6-dimethylpiperidin-3-yl)-5-(trifluoromethyl)pyrimidin-2-amine], for which the half-inhibitory concentration (IC50) in the experiment with HCC70 cells (Homo sapiens) is less than 100 nM; against CDK2/Cyclin E1 complex, greater than 500 nM; in the experiment with COV318 cells (Homo sapiens), 100 to 500 nM; against CDK9/Cyclin T1 complex it was greater than 500 nM; with COV504 cells (Homo sapiens) it was less than 100 nM; in experiment [1] it was less than 30 nM. The IC50 in experiment [2] is greater than 500 nM; in the experiment with MB453 cells (Homo sapiens), less than 100 nM.
For the molecule `Cc1noc(C)c1-c1ccc2c(-c3nc(N[C@@H]4CNC[C@H](O)C4)ncc3C(F)(F)F)c[nH]c2c1` [Compound 105, (3R,5S)-5-[[4-[6-(3,5-dimethylisoxazol-4-yl)-1H-indol-3-yl]-5-(trifluoromethyl)pyrimidin-2-yl]amino]piperidin-3-ol], the IC50 in the experiment on HCC70 cells (Homo sapiens) is less than 100 nM; at CDK2/Cyclin E1 complex it was greater than 500 nM; in the experiment on COV318 cells (Homo sapiens), 500 to 1000 nM; against CDK9/Cyclin T1 complex, greater than 500 nM; in the experiment on COV504 cells (Homo sapiens), 100 to 500 nM; in experiment [1], less than 30 nM. For the same molecule, the values for the IC50 (in experiment [2]; with MB453 cells (Homo sapiens)) were greater than 500 nM and 100 to 500 nM, respectively.
For the molecule `CC1(C)CC[C@H](Nc2ncc(C(F)(F)F)c(-c3c[nH]c4cc(-c5nccs5)ccc34)n2)CN1` [Compound 106, (S)—N-(6,6-dimethylpiperidin-3-yl)-4-(6-(thiazol-2-yl)-1H-indol-3-yl)-5-(trifluoromethyl)pyrimidin-2-amine], the IC50 was less than 100 nM with HCC70 cells (Homo sapiens); greater than 500 nM against CDK2/Cyclin E1 complex; 100 to 500 nM in the experiment with COV318 cells (Homo sapiens); greater than 500 nM against CDK9/Cyclin T1 complex; less than 100 nM in the experiment with COV504 cells (Homo sapiens); less than 30 nM in experiment [1]. For the same molecule, the concentration for half-maximal inhibition (IC50) is greater than 500 nM in experiment [2] and less than 100 nM with MB453 cells (Homo sapiens).
Regarding `O[C@H]1CNC[C@@H](Nc2ncc(C(F)(F)F)c(-c3c[nH]c4cc(-c5nccs5)ccc34)n2)C1` [Compound 107], the IC50 in the experiment with HCC70 cells (Homo sapiens) is 100 to 500 nM; against CDK2/Cyclin E1 complex it was greater than 500 nM; with COV318 cells (Homo sapiens), 100 to 500 nM; on CDK9/Cyclin T1 complex it was greater than 500 nM; in the experiment with COV504 cells (Homo sapiens) it was 100 to 500 nM; in experiment [1], less than 30 nM. Moreover, the IC50 in experiment [2] is greater than 500 nM; with MB453 cells (Homo sapiens) it was 100 to 500 nM.
For `FC(F)(F)c1cnc(N[C@H]2CCCNC2)nc1-c1c[nH]c2nc(-c3nccs3)ccc12` [Compound 108], the half-maximal inhibitory concentration (IC50) with HCC70 cells (Homo sapiens) was less than 100 nM; against CDK2/Cyclin E1 complex it was greater than 500 nM; in the experiment with COV318 cells (Homo sapiens) it was less than 100 nM; against CDK9/Cyclin T1 complex it was greater than 500 nM; with COV504 cells (Homo sapiens), less than 100 nM; in experiment [1], less than 30 nM. Further, the concentration for half-maximal inhibition (IC50) in experiment [2] was greater than 500 nM; with MB453 cells (Homo sapiens), less than 100 nM.
`CC1(C)CNC[C@@H](Nc2ncc(C(F)(F)F)c(-c3c[nH]c4cc(-c5nccs5)ccc34)n2)C1` [Compound 109]: the IC50 is 100 to 500 nM in the experiment on HCC70 cells (Homo sapiens); greater than 500 nM against CDK2/Cyclin E1 complex; less than 100 nM in the experiment with COV318 cells (Homo sapiens); greater than 500 nM at CDK9/Cyclin T1 complex; less than 100 nM in the experiment on COV504 cells (Homo sapiens); less than 30 nM in experiment [1]. Besides, the IC50 in experiment [2] was greater than 500 nM; in the experiment on MB453 cells (Homo sapiens), 100 to 500 nM.
